Data set [1] deals with JIMT-1. The experiment in a line: Cell viability assay, JIMT-1. The note with it: Homo sapiens, JIMT-1, 144 h, read-out: IC50 cytotoxicity. It counts as cell-based. Here is the method:
(§1) Cells were seeded into 96-well plates at 1500 cells/well for SK-BR-3, JIMT-1, and NCI-N87, 800 cells/well for HCC1954, 600 cells/well for AGS and MKN-45, 2500 cells/well for MDA-MB-468 and Capan-1, and 1000 cells/well for SNU-16. After overnight incubation, a serially diluted solution of compounds or ADCs was added. Cell viability was evaluated after 6 days using CellTiter-Glo reagent (Promega) according to the manufacturer’s instructions. Luminescence was measured by PHERAstar (BMG LABTECH).

The nature of data set [2]: Lipophilicity assay (chromatographic LogD). It counts as physicochemical. The note with it: pH 7.4. The method, then: Distribution coefficient (LogD, pH 7.4) was obtained by a high-throughput alternative method. Each compound was dissolved in DMSO at 10 mM. After centrifugation, the solution was measured by reversed-phase HPLC on a C18 column (50 × 4.6 mm, […] Gemini C18, Phenomenex) at pH 7.4, using fast gradient acetonitrile-aqueous buffer mobile phases. The lipophilicity was estimated from a calibration curve using six reference compounds by plotting their respectively measured retention time versus LogD in literature. The chromatographic LogD values were derived directly from the gradient retention time by using this calibration curve.

The subject of data set [3] is nine cancer cell lines. Briefly: Cell viability assay, panel of nine cancer cell lines. It counts as cell-based. The conditions noted are these: Homo sapiens; independent of HER2 expression levels; read-out: IC50 values across nine cancer cell lines. Here is the method:
as §1

Data set [4] concerns Capan-1. Briefly: Cell viability assay, Capan-1. The conditions noted are these: Homo sapiens, CAPAN-1, 144 h, read-out: IC50 cytotoxicity. The data set is classed as cell-based. The method, then:
as §1

Data set [5] relates to NCI-N87. Briefly: Cell viability assay, NCI-N87. The data set is classed as cell-based. The note with it: Homo sapiens, NCI-N87, 144 h, read-out: IC50 cytotoxicity. The method, then:
as §1

Data set [6] concerns AGS. The experiment in a line: Cell viability assay, AGS. The data set is classed as cell-based. The conditions noted are these: Homo sapiens, 144 h, read-out: IC50 cytotoxicity. The method, then: as §1
In data set [7] the target is T1, human topoisomerase I (Homo sapiens, UniProt P11387).
T1 construct: purchased Inspiralis
T1 sequence (P11387 1-765): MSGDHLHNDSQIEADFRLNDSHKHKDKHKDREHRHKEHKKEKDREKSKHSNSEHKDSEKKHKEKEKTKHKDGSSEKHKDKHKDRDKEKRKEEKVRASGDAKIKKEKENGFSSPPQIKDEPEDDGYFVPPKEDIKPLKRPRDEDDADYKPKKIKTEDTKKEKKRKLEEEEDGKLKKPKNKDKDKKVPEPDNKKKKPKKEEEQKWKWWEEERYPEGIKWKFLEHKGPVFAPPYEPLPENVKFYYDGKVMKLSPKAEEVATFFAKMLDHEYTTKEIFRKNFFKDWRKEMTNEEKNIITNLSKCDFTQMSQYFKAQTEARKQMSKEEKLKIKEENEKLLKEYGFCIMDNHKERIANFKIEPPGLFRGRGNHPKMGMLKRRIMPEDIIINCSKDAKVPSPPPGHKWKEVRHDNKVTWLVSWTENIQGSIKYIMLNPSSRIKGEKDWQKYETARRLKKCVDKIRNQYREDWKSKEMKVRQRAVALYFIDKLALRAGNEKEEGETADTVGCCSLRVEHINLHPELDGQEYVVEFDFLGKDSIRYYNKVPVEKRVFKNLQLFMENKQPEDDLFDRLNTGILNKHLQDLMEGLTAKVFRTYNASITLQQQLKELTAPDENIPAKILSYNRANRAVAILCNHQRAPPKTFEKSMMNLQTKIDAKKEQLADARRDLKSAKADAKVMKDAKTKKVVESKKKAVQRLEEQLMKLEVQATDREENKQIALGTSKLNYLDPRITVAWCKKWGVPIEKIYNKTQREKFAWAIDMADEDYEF
Briefly: Topoisomerase I inhibition assay. The data set is classed as biochemical. The conditions noted are these: read-out: Top I inhibition (IC50). Here is the method:
Topoisomerase I inhibition assay was outsourced to Wuxi Apptech Co. Ltd. Topoisomerase I activity was measured using human topoisomerase I microplate assay kit (Inspiralis), according to the manufacturer’s instructions.

Data set [8] is described as follows: Parallel artificial membrane permeability (PAMPA) assay. The data set is classed as in vitro ADME. Here is the method:
PAMPA assay was outsourced to Wuxi Apptech Co. Ltd. Briefly, donor plate, acceptor plate and receiver plate formed a sandwich and 200 µL of 5.0 µM donor solutions were added. The concentrations of compounds in both plates were measured by a LC-MS/MS system after 30 minutes. The permeability coefficient (Peff, nm/s) values at pH 5 and 7.4 were calculated.

In data set [9] the test system is SK-BR-3. Briefly: Cell viability assay, SK-BR-3. It counts as cell-based. The conditions noted are these: Homo sapiens, SK-BR-3, 144 h, read-out: IC50 cytotoxicity. The method, then: as §1
For data set [10], the system named is HCC1954. The experiment in a line: Cell viability assay, HCC1954. The data set is classed as cell-based. The note with it: Homo sapiens, HCC1954, 144 h, read-out: IC50 cytotoxicity. Here is the method:
as §1

The subject of data set [11] is MDA-MB-468. The experiment in a line: Cell viability assay, MDA-MB-468. The data set is classed as cell-based. The note with it: Homo sapiens, MDA-MB-468, 144 h, read-out: IC50 cytotoxicity. Here is the method: as §1
Data set [12] can be described thus: Pharmacokinetics of payload in mice. Also on record: species or system C57BL/6 mice. The note with it: C57BL/6, mouse, in vivo, iv, 0.5 mg/kg. The method, then: All animal experiments at Shanghai Hengrui were approved by Shanghai Hengrui’s Institutional Animal Care and Use Committee. Studies were performed in accordance with ARRIVE guidelines. C57BL/6 mice (15–18 g body weight, n = 18) were purchased from Beijing Vital River Laboratory Animal Technology Co., Ltd and were held as described in details of mouse xenograft section. Compounds were administered intravenously at 0.5 mg/kg. Blood samples were collected at various time points after dosing. Mice were monitored daily for health condition and humane endpoint criteria. There were no unexpected animal deaths or humane endpoint criteria reached during the study. All of the animals were euthanized by using inhaled carbon dioxide at the end of study. The compound concentrations were determined by SCIEX Triple Quad 7500 LC-MS/MS System (SCIEX).

In data set [13] the test system is MKN45. The experiment in a line: Cell viability assay, MKN45. It counts as cell-based. The note with it: Homo sapiens, MKN-45, 144 h, read-out: IC50 cytotoxicity. The method, then: as §1
Data set [14] in a line: Toxicokinetics in cynomolgus monkeys. It counts as in vivo. The conditions noted are these: for half-life: both sexes, cynomolgus monkey, in vivo, iv, 40 mg/kg. The method, then: GLP toxicology and toxicokinetics studies were outsourced to Shanghai InnoStar Bio-tech Co., Ltd. Studies were approved by InnoStar’s Institutional Animal Care and Use Committee and carried out in compliance with ARRIVE guidelines. Cynomolgus monkeys were housed in stainless steel cages at the study institution. The temperature and relative humidity of the room were recorded twice a day with ranged from 18 to 26°C and 40–70%, respectively. Ventilation was constantly operated with ≥ 8 times of air changes per hour. […] Monkey maintenance feed was purchased from qualified supplier with microorganisms, heavy metals and pesticide residues tested. During the study, all animals had ad libitum access to feed and clean deionized water except during specific fasting. […] All animals were acclimated to temperature and relative humidity-controlled environment for few days before randomization. Detailed clinical observation was performed on all cynomolgus monkeys once a day during the acclimation period. All of the animal care staff were trained to maximal reduce the pain of animals. Special training such as animal handling, proper injection for treatment/anesthesia, and painless death were taught to the staff.
Clinical signs, body weight, food consumption, and clinical pathology were monitored twice a day. […] Humane endpoint criteria were observed twice a day during study to examine health and behavior. Animals were sacrificed in less than a day once reached endpoint criteria. There were no unexpected animal deaths during the studies with 16-weeks duration. All of the animals were euthanized by intravenous injection of combination of zoletil and xylazine at the end of study for targeted organ and tissue examinations to evaluate toxicity or when the following humane endpoints were reached: severe injury, severe respiratory depression, severe weight loss, persistent anorexia, significant pain or stress, progressive pain leading to weakness, and persistent or continuous twitching. Final disposal of each animal was recorded on the study records.

This note sets out measurements from publication PMC12200682 (PLOS One, 2025).

With `CC[C@@]1(O)C(=O)OCc2c1cc1n(c2=O)Cc2c-1nc1cc(F)c(C)c3c1c2[C@@H](NC(=O)[C@H](O)C1CC1)CC3` [SHR169265], the IC50 in data set [1] is 2.32 ± 0.45 nM; in data set [3], 0.3 to 2.32 nM; in data set [4] it was 0.38 ± 0.07 nM; in [5], 1 ± 0.07 nM; in data set [6] it was 0.36 ± 0.11 nM; in data set [7], 1340 nM. In addition, the IC50 in [9] came to 0.58 ± 0.1 nM; in data set [10], 0.55 ± 0.19 nM; in [11] it was 0.56 ± 0.09 nM; in data set [13], 0.3 ± 0.07 nM. In data set [2], the chromatographic logD came out at 1.89. For the same compound, the values for the Papp at 30 min, 5 µM in data set [8] (pH 5) and in data set [8] (pH 7.4) were 13.8 ×10⁻⁶ cm/s and 7.16 ×10⁻⁶ cm/s, respectively. Besides, the AUC(0-t) in data set [12] stood at 113 ng·h/mL. The compound also had a peak concentration (Cmax) in data set [12] of 250 ng/mL. The compound further displayed a Vd in data set [12] of 1.81 L/kg. In addition, the clearance in data set [12] stood at 72.6 mL/min/kg. For the same compound, the half-life is 0.37 h in [12] (mice, i.v. injection); 101 h in data set [14] (analyte after SHR-A1811 40 mg/kg i.v. every 3 weeks, Multiple); 107 h in data set [14] (analyte after SHR-A1811 40 mg/kg i.v., Single). The RacAUCINF in data set [14] (analyte after SHR-A1811 40 mg/kg i.v. every 3 weeks, Multiple vs single) is 1.07.
